Assays:
[1] = Half life in monkey at 3 mg/kg, po; format: ADME, organism-based, Macaca mulatta; parameters: dose 3 mg/kg, route oral; conditions: rhesus monkey, in vivo
[2] = biological target: T1, Prolyl endopeptidase FAP (Homo sapiens, UniProt Q12884); experiment: Inhibition of FAPalpha
T1 sequence (Q12884 whole entry): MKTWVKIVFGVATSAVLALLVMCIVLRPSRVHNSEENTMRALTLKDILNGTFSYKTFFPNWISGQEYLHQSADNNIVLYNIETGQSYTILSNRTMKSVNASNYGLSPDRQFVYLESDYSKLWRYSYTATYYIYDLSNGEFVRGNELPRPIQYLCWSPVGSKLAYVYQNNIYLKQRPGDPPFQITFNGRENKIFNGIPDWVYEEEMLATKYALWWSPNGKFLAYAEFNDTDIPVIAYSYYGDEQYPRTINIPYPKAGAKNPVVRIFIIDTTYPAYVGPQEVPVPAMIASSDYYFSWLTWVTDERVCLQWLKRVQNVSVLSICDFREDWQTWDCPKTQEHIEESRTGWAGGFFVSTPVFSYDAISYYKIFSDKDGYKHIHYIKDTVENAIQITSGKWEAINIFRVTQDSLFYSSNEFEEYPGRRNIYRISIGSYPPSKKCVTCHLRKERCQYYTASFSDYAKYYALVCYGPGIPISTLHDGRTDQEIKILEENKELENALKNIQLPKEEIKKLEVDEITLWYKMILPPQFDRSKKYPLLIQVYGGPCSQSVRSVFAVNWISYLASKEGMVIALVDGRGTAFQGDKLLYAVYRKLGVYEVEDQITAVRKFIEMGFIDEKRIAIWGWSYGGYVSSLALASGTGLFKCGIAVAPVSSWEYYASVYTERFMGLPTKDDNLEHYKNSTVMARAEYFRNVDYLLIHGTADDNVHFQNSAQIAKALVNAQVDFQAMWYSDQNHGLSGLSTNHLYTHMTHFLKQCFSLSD

[3] = Clearance in rat at 1 mg/kg, iv; format: ADME, organism-based; parameters: dose 1 mg/kg, route intravenous; conditions: in vivo

In the case of `Cn1c(=O)c2c(cc(N3CCC[C@@](C)(N)C3)n2Cc2cc(F)ccc2C#N)n(C)c1=O`, the half-life [1] is reported as 15 h, the IC50 [2] is reported as > 50 µM and the clearance [3] is reported as 40 mL/min/kg.

Source: ChEMBL document CHEMBL1817578, “2-({6-[(3R)-3-amino-3-methylpiperidine-1-yl]-1,3-dimethyl-2,4-dioxo-1,2,3,4-tetrahydro-5H-pyrrolo[3,2-d]pyrimidine-5-yl}methyl)-4-fluorobenzonitrile (DSR-12727): a potent, orally active dipeptidyl peptidase IV inhibitor without mechanism-based inactivation of CYP3A” (Bioorg Med Chem, 2011)
